Test results: ChEMBL document CHEMBL1201862, “PubChem BioAssay data set” (2004)
Activity calls are given as the source filed them.

Tests used:
[1] = biological target: E3 ubiquitin-protein ligase XIAP (Homo sapiens, UniProt P98170); test: Counter Screen using XIAP-Bir3 for Chemical Antagonists of Bir1/2 domains of IAP-family anti-apoptotic proteins. [Related pubchem assays (depositor defined):AID1018, AID1449, AID1514, AID1638, AID1749, AID1750, AID488957, AID488963]
[2] = biological target: Heat shock protein HSP 90-alpha (Homo sapiens, UniProt P07900); test: Luminescence-based dose response biochemical high throughput screening assay for inhibitors of the Heat Shock Protein 90 (HSP90). [Related pubchem assays: 1831 (Summary AID.), 1846 (Confirmation screen.), 1789 (Primary screen.)]
Vero = Vero cell cytotoxicity, cytotoxicity control for flavivirus capping enzyme inhibitors (AID 588742); format: functional; settings: Chlorocebus sabaeus
Cytochrome P450 1A2 = biological target: T1, Cytochrome P450 1A2 (Homo sapiens, UniProt P05177);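 note: PubChem cytochrome P450 panel assay, CYP1A2 panel member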
T1 sequence (P05177 whole entry): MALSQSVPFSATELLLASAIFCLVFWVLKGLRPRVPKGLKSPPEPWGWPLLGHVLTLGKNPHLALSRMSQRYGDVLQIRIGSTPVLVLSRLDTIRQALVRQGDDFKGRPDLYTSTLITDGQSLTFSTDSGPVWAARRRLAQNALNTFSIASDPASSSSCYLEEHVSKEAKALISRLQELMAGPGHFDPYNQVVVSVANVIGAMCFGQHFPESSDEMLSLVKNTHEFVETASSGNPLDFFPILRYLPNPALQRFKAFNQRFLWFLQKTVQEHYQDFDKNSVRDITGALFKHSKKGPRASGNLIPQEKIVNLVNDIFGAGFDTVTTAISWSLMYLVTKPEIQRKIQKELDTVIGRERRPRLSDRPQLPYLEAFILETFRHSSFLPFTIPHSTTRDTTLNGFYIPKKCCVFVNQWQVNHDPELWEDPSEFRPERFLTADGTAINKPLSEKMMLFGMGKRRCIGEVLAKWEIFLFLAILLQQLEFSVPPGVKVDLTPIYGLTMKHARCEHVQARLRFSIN

[3] = cytotoxicity toward DRD oncogenic fibroblasts, dose response, cell-based, non-viral oncogenic, luminescence (AID 1934); format: functional; settings: Homo sapiens

Sequence of E3 ubiquitin-protein ligase XIAP (P98170 whole entry): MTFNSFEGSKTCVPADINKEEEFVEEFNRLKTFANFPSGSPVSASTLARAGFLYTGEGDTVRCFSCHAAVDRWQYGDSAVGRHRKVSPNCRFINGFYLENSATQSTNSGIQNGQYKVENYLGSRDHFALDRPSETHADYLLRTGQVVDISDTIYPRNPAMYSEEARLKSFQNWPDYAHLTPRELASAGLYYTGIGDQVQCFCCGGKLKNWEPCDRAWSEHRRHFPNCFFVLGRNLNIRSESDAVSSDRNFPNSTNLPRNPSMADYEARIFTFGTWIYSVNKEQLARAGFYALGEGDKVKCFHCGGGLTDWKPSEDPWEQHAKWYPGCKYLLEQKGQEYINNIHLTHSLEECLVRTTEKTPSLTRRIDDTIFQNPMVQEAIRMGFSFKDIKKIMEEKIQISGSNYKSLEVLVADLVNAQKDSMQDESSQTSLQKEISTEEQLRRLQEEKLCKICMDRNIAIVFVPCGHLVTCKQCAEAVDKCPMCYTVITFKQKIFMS

Question: For CCc1nnc(NS(=O)(=O)c2ccc(NC(=S)NC(=O)/C=C/c3ccc(C(C)C)cc3)cc2)s1, which IC50 [1] is on record?
Answer: > 20 µM (inactive)

Question: Which IC50 [2] does the source give for O=C1C(Nc2ccc(O)cc2)=C/C(=N/S(=O)(=O)c2cccs2)c2ccccc21 here?
Answer: 0.656 µM (active)

Question: For COc1ccc(S(=O)(=O)Nc2cc(SCC(=O)O)c(O)c3ccccc23)cc1, which CC50 (Vero) is on record?
Answer: 20.6 µM (active)

Question: What does the source list for O=C(/C=C/c1ccco1)Nc1ccc(Oc2ccccc2)cc1?
Answer: AC50 (Cytochrome P450 1A2): 20 µM (inconclusive); EC50 [3]: 18.1 µM (active)
